The source of these data is PubChem BioAssay AID624367 (Broad Institute, 2012).

Calls of active or inactive are those of the source. The rule behind the calls is not given here.

One experiment is described as follows: viability loss in LCL cells – cell-based, plate reader, dry powder, set 2, cytotoxicity control, dose response (AID 624367). The following applies: Lymphoblastoid cell line (LCL) cytotoxicity, plate reader; at 30 µM (top of the series).
In the case of `Cc1cc(C(=O)Nc2ccc3c(c2)C(=O)N(C)[C@@H]2CC[C@H](CC(=O)NCc4ccc(-c5ccccc5)cc4)O[C@H]2CO3)no1`, the activity change, negative = cytotoxicity is -7.18% (inactive).

For the molecule `C[C@H](NC(=O)C[C@@H]1C=C[C@H](NC(=O)Cc2ccccn2)[C@H](CO)O1)c1ccccc1`, the activity change, negative = cytotoxicity was 6.34% (inactive).

The same experiment, now with this note: Lymphoblastoid cell line (LCL) cytotoxicity, plate reader; at 35 µM (top of the series).
Consider `O=C(C[C@@H]1CC[C@@H]2[C@H](COC[C@@H](O)CN2Cc2ccc3c(c2)OCO3)O1)Nc1ccc(-c2ccccc2)cc1`, for which the activity change, negative = cytotoxicity was -8.48% (inactive).

Regarding `COc1cccc(S(=O)(=O)N(C)C[C@@H]2Oc3cc(C4=CCCCC4)ccc3S(=O)(=O)N([C@@H](C)CO)C[C@@H]2C)c1`, the activity change, negative = cytotoxicity was -5.63% (inactive).

Take `O=C(C[C@@H]1C[C@H]2c3cc(NC(=O)c4ccc5c(c4)OCO5)ccc3O[C@H]2[C@H](CO)O1)NC1CCCCC1`: the activity change, negative = cytotoxicity was -16.7% (inactive).

In the case of `Cc1noc(C)c1S(=O)(=O)Nc1ccc2c(c1)C(=O)N([C@@H](C)CO)C[C@@H](C)[C@H](CN(C)Cc1ccc(C(F)(F)F)cc1)OCCCC[C@@H](C)O2`, the activity change, negative = cytotoxicity is -6.19% (inactive).

For `COc1ccc(-c2cccc(-c3nc(C(=O)NCC(F)(F)F)cc4c3[C@H](CCO)N([S@@](=O)C(C)(C)C)C4)c2)cc1`, the activity change, negative = cytotoxicity was -13.3% (inactive).

For the molecule `C[C@@H](NC(=O)C[C@H]1C=C[C@@H](NC(=O)Cc2ccccn2)[C@@H](CO)O1)c1ccccc1`, the activity change, negative = cytotoxicity was -7.23% (inactive).

`O=C(C[C@@H]1CC[C@@H]2[C@H](COC[C@H](O)CN2Cc2ccc3c(c2)OCO3)O1)Nc1ccc(-c2ccccc2)cc1`: the activity change, negative = cytotoxicity was -4.84% (inactive).

For the molecule `O=C(C[C@H]1CC[C@@H]2[C@H](COC[C@H](O)CN2Cc2ccc(Oc3ccccc3)cc2)O1)N1CCc2ccccc2C1`, the activity change, negative = cytotoxicity is -13.9% (inactive).

On to `N#C[C@@H]1[C@H](c2ccc(C#Cc3ccccc3F)cc2)[C@@H](CO)N1C(=O)c1cccnc1`, for which the activity change, negative = cytotoxicity is -5.47% (inactive).

Consider `C[C@@H](NC(=O)C[C@H]1C=C[C@@H](NC(=O)Cc2ccccn2)[C@H](CO)O1)c1ccccc1`, for which the activity change, negative = cytotoxicity was -1.43% (inactive).

In the case of `C[C@@H](NC(=O)C[C@@H]1C=C[C@H](NC(=O)Cc2ccccn2)[C@@H](CO)O1)c1ccccc1`, the activity change, negative = cytotoxicity was -4.44% (inactive).

With `N#C[C@H]1[C@@H](c2ccc(-c3cccnc3)cc2)[C@@H](CO)N1C(=O)Nc1ccc(F)cc1`, the activity change, negative = cytotoxicity is 3.54% (inactive).

For `Cc1noc(C)c1S(=O)(=O)Nc1ccc2c(c1)C(=O)N([C@@H](C)CO)C[C@H](C)[C@H](CN(C)Cc1ccc(C(F)(F)F)cc1)OCCCC[C@H](C)O2`, the activity change, negative = cytotoxicity is -5.45% (inactive).

For `C[C@@H](NC(=O)C[C@H]1C=C[C@H](NC(=O)Cc2ccccn2)[C@@H](CO)O1)c1ccccc1`, the activity change, negative = cytotoxicity is -5.21% (inactive).

Take `CN(C)c1ccc2c(c1)[C@@H]1C[C@@H](CC(=O)NCc3ccc(Oc4ccccc4)cc3)O[C@H](CO)[C@@H]1O2`: the activity change, negative = cytotoxicity is 4.68% (inactive).

With `COc1ccc(S(=O)(=O)N(C)C[C@H]2Oc3ncc(/C=C/c4ccccc4)cc3C(=O)N([C@H](C)CO)C[C@@H]2C)cc1`, the activity change, negative = cytotoxicity was 7.14% (inactive).

On to `CC(C)(C)[S@@](=O)N1Cc2cc(C(=O)NCCc3ccncc3)nc(-c3cccc(-c4cccnc4)c3)c2[C@H]1CCO`, for which the activity change, negative = cytotoxicity is 4.85% (inactive).

For `Cc1cc(C(=O)Nc2ccc3c(c2)C(=O)N(C)[C@H]2CC[C@@H](CC(=O)NCc4ccc(-c5ccccc5)cc4)O[C@H]2CO3)no1`, the activity change, negative = cytotoxicity was -17.8% (inactive).

Regarding `C[C@@H]1CN([C@@H](C)CO)S(=O)(=O)c2ccc(C#C[C@@H](C)O)cc2O[C@H]1CN(C)Cc1ccc(-c2ccccc2)cc1`, the activity change, negative = cytotoxicity is -1.38% (inactive).

Turning to `COC(=O)C[C@@H]1C[C@@H]2c3cc(NC(=O)CN(C)C)ccc3O[C@@H]2[C@@H](CO)O1`, the activity change, negative = cytotoxicity is -2.96% (inactive).

Turning to `C[C@H](NC(=O)C[C@H]1C=C[C@@H](NC(=O)Cc2ccccn2)[C@H](CO)O1)c1ccccc1`, the activity change, negative = cytotoxicity was 9.63% (inactive).

Consider `C[C@@H](NC(=O)C[C@@H]1C=C[C@@H](NC(=O)Cc2ccccn2)[C@H](CO)O1)c1ccccc1`, for which the activity change, negative = cytotoxicity is 0.18% (inactive).

As to `C[C@@H]1CN([C@@H](C)CO)S(=O)(=O)c2ccc(C#Cc3ccncc3)cc2O[C@H]1CN(C)C(=O)Nc1ccc2c(c1)OCO2`, the activity change, negative = cytotoxicity is -1.7% (inactive).

For the molecule `CO[C@H]1CN(C)C(=O)c2ccc(NC(=O)C3CC3)cc2OC[C@H](C)N(C(=O)c2ccccn2)C[C@H]1C`, the activity change, negative = cytotoxicity was -0.57% (inactive).

For `C[C@H](NC(=O)C[C@@H]1C=C[C@@H](NC(=O)Cc2ccccn2)[C@@H](CO)O1)c1ccccc1`, the activity change, negative = cytotoxicity was -1.09% (inactive).

For `C[C@H](CO)N1C[C@H](C)[C@@H](CN(C)Cc2ccc(C(F)(F)F)cc2)Oc2ccc(NC(=O)Cc3ccccc3)cc2CC1=O`, the activity change, negative = cytotoxicity was -0.272% (inactive).

Regarding `O=C(Cc1ccccn1)NCC[C@H]1CC[C@@H](NC(=O)Nc2ccc(Cl)cc2)[C@H](CO)O1`, the activity change, negative = cytotoxicity is -1.08% (inactive).

For the molecule `CC(C)(C)[S@@](=O)N1Cc2cc(C(=O)NCc3ccccc3F)nc(-c3cccc(-c4cccnc4)c3)c2[C@H]1CCO`, the activity change, negative = cytotoxicity is -3.02% (inactive).

Regarding `CO[C@@H]1CN(C)C(=O)c2ccc(NC(C)=O)cc2OC[C@@H](C)N(Cc2ccccc2F)C[C@H]1C`, the activity change, negative = cytotoxicity is 2.23% (inactive).

For the molecule `C[C@@H]1CN([C@H](C)CO)C(=O)Cc2cc(NC(=O)Cc3ccccc3)ccc2O[C@H]1CN(C)Cc1ccc(C(F)(F)F)cc1`, the activity change, negative = cytotoxicity was 3.94% (inactive).

Regarding `O=C(C[C@@H]1C[C@H]2c3cc(NS(=O)(=O)c4ccc(F)cc4)ccc3O[C@H]2[C@@H](CO)O1)NC1CCCCC1`, the activity change, negative = cytotoxicity was 5.66% (inactive).

`C[C@H](NC(=O)C[C@H]1C[C@@H]2c3cc(NC(=O)c4cccnc4)ccc3O[C@@H]2[C@@H](CO)O1)c1ccccc1`: the activity change, negative = cytotoxicity was -1.74% (inactive).

`CC(C)NC(=O)N1Cc2cc(C(=O)NC3Cc4ccccc4C3)nc(-c3cccc(-c4cccnc4)c3)c2[C@@H]1CCO`: the activity change, negative = cytotoxicity was 0.066% (inactive).

With `CC(=O)N(C)C[C@@H]1Oc2cc(C#Cc3ccc(F)cc3)ccc2S(=O)(=O)N([C@H](C)CO)C[C@H]1C`, the activity change, negative = cytotoxicity was 1.69% (inactive).

Consider `C[C@@H]1CN([C@@H](C)CO)C(=O)Cc2cc(NC(=O)Cc3ccccc3)ccc2O[C@@H]1CN(C)Cc1ccc(C(F)(F)F)cc1`, for which the activity change, negative = cytotoxicity is -0.78% (inactive).

Turning to `COc1cccc(C(=O)Nc2ccc3c(c2)C(=O)N(C)C[C@H](OC)[C@@H](C)CN(CCc2ccccc2)[C@@H](C)CO3)c1`, the activity change, negative = cytotoxicity is -13% (inactive).

Consider `COc1cccc(S(=O)(=O)N(C)C[C@@H]2Oc3cc(C4=CCCCC4)ccc3S(=O)(=O)N([C@@H](C)CO)C[C@H]2C)c1`, for which the activity change, negative = cytotoxicity was 0.436% (inactive).

Turning to `COc1ccccc1C(=O)Nc1ccc2c(c1)C(=O)N(C)[C@@H]1CC[C@H](CC(=O)NCCc3ccncc3)O[C@H]1CO2`, the activity change, negative = cytotoxicity is 0.764% (inactive).
